Results published in ChEMBL document CHEMBL1201862, “PubChem BioAssay data set” (2004).
Active and inactive are the calls of the source.

What was measured:
[1] = test system: P388; test: cells; assay type: functional; settings: Mus musculus
[2] = test system: P388/ADR; test: cells; assay type: functional; settings: Mus musculus
[3] = test system: SN12K1; test: cells; assay type: functional; settings: Homo sapiens
[4] = target: T1, Sentrin-specific protease 7 (Homo sapiens, UniProt Q9BQF6); assay type: functional;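 also: Luminescence-based dose-response confirmation of ultra-high-throughput screening hits, measuring inhibition of SENP7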
T1 sequence (Q9BQF6 whole entry): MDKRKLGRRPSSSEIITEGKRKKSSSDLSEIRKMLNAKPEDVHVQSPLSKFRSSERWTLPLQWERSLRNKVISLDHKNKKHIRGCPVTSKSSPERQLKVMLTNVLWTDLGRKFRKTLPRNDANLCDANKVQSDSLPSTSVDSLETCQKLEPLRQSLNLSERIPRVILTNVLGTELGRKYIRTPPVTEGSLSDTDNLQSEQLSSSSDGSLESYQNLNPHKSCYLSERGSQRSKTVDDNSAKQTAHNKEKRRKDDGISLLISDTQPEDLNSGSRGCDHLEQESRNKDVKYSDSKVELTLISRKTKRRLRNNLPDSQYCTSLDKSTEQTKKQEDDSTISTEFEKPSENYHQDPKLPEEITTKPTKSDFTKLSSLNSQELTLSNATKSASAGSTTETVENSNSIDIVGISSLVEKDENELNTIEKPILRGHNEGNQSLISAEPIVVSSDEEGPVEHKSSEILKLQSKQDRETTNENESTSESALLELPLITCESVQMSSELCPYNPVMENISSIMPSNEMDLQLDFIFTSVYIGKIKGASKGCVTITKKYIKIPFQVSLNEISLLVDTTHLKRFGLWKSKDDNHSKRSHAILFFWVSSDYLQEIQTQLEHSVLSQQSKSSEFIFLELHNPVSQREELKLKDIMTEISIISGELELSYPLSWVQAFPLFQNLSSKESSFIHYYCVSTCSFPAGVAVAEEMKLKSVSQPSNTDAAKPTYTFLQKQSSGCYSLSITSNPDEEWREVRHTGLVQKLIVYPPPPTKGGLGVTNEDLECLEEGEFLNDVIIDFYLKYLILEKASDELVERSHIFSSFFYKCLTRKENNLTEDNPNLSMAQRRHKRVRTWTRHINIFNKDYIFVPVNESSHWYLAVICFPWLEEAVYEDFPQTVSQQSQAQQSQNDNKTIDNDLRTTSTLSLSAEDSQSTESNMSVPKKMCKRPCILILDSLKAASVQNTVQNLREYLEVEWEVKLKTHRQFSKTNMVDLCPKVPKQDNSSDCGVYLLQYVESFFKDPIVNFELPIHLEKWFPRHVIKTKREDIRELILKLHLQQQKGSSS

[5] = target: T2, Sentrin-specific protease 8 (Homo sapiens, UniProt Q96LD8); assay type: functional;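 also: luminescence read-out of SENP8 inhibition, dose-response confirmation following an ultra-high-throughput screen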
T2 sequence (Q96LD8 whole entry): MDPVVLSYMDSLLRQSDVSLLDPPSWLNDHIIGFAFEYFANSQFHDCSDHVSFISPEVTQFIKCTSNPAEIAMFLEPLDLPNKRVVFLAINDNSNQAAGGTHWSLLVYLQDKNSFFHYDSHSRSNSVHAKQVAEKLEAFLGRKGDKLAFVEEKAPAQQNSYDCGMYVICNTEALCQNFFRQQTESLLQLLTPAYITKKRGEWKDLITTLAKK

[6] = target: T3, Sentrin-specific protease 6 (Homo sapiens, UniProt Q9GZR1); assay type: functional;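 also: Luminescence-based dose-response confirmatory assay of SENP6 inhibition, following up an ultra-high-throughput screen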
T3 sequence (Q9GZR1 whole entry): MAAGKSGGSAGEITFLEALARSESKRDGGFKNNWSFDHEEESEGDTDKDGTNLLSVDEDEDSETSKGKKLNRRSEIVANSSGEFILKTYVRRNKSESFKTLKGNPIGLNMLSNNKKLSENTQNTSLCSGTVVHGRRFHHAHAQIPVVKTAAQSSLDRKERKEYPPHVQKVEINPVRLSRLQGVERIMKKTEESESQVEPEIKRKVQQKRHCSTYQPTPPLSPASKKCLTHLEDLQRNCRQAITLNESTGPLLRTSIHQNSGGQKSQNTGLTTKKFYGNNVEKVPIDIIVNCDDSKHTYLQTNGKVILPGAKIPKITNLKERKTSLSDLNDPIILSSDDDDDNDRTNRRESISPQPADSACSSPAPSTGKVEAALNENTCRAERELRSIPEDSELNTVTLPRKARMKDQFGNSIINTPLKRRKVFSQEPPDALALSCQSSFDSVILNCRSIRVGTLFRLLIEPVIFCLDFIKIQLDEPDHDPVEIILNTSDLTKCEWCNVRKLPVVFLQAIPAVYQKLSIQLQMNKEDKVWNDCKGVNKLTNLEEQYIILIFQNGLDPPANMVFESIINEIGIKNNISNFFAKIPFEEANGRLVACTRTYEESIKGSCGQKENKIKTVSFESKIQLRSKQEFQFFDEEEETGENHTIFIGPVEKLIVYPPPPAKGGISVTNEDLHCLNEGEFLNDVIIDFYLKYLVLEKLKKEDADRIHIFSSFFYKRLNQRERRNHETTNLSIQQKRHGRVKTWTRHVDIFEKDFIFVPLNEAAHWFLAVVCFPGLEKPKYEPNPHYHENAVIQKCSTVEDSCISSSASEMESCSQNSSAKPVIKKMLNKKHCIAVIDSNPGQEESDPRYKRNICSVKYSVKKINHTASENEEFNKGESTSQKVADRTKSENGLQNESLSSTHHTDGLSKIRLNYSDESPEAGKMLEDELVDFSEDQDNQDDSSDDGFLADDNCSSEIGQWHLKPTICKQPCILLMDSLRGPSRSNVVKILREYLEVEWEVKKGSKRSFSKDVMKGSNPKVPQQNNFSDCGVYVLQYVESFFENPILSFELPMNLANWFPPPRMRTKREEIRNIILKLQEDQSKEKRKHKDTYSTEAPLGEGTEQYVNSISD

[7] = target: T4, Caspase-3 (Homo sapiens, UniProt P42574); assay type: functional;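 also: Dose-response selectivity test against caspase-3 for candidate inhibitors of sentrin-specific proteases (SENPs)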
T4 sequence (P42574 whole entry): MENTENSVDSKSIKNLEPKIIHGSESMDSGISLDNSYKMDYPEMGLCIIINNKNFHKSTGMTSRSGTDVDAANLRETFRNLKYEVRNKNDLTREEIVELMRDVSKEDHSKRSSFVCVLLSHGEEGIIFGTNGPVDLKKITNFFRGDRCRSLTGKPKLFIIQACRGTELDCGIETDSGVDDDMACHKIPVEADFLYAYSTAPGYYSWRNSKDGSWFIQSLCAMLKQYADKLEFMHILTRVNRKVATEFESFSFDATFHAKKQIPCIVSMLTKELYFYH

[8] = test system: BJ; test: cells; assay type: functional, cell-based; settings: Homo sapiens
[9] = test system: BJ; test: cytotoxicity toward BJ-TERT-LT-ST fibroblasts, dose response, cell-based, RAS-independent, luminescence (AID 1935); assay type: functional; settings: Homo sapiens;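 also: BJ fibroblasts immortalized with TERT plus LT and ST oncogenes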
[10] = HepG2 cell cytotoxicity, dose response, cytotoxicity control for Shn3 inhibitor project, CellTiter-Glo, cherry-picked (AID 624134); assay type: functional, cell-based
[11] = test system: BJ; test: cytotoxicity toward BJ-TERT fibroblasts, dose response, cell-based, RAS-independent, luminescence (AID 1933); assay type: functional; settings: Homo sapiens
[12] = control 3'UTR Renilla luciferase suppression, dose response, counter-screen for Shn3 inhibitor project, cell-based, Clone20-Shn3RL, cherry-picked (AID 624133); assay type: functional
[13] = cytotoxicity toward DRD oncogenic fibroblasts, dose response, cell-based, non-viral oncogenic, luminescence (AID 1934); assay type: functional; settings: Homo sapiens
[14] = test system: BJ; test: cytotoxicity toward Ras-transformed BJeLR fibroblasts, dose response, cell-based, alamar blue fluorescence, cherrypicked samples (AID 2631); assay type: functional; settings: Homo sapiens;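 also: confirmatory dose-response assay in RAS-dependent BJ fibroblasts engineered with TERT, LT and ST, with cytotoxicity read by fluorescence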
[15] = test system: INS1; test: beta cell apoptosis inhibitors, cytokine rescue, dose response, luminescence, retest (AID 449756); assay type: functional, cell-based; settings: Rattus norvegicus;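 also: cell death triggered by IL-1 beta plus TNF-alpha plus IFN-gamma mixture; protective hits raise ATP signal compared with cytokine alone wells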
[16] = Shn3 3'UTR reporter inhibitors, dose response, cell-based, Clone20 osteoblasts, firefly luciferase, cherry-picked (AID 624132); assay type: functional;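 also: firefly luciferase luminescence from reporter carrying the Shn3 3'UTR in osteoblasts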
[17] = target: T5, Protein skinhead-1 (Caenorhabditis elegans, UniProt P34707); assay type: functional
T5 sequence (P34707 whole entry): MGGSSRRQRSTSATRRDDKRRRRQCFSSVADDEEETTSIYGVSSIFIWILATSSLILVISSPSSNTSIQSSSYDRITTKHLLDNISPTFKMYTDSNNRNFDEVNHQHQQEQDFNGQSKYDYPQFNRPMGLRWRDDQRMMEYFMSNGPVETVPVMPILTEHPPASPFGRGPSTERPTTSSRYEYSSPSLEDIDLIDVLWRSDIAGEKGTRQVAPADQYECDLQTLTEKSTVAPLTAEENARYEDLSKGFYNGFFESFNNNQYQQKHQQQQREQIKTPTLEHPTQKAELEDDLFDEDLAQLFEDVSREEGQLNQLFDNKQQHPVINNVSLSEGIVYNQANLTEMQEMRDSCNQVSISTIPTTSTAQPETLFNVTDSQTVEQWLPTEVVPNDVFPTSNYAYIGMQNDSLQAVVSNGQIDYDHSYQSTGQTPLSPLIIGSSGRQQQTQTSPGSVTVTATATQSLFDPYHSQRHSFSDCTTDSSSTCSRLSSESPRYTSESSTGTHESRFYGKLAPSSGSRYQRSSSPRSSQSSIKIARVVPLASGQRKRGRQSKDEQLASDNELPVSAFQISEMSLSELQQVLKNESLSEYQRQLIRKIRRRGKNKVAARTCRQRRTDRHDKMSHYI

[18] = target: T6, Streptokinase A (Streptococcus pyogenes serotype M1, UniProt P10520); test: S. pyogenes streptokinase expression inhibitors, potency, dose response, plasminogen activation absorbance, OD405 (AID 1914); assay type: functional, Streptococcus pyogenes M1 GAS;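 also: secreted streptokinase activity via plasminogen activation per viability signal from cell pellet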
T6 sequence (P10520 whole entry): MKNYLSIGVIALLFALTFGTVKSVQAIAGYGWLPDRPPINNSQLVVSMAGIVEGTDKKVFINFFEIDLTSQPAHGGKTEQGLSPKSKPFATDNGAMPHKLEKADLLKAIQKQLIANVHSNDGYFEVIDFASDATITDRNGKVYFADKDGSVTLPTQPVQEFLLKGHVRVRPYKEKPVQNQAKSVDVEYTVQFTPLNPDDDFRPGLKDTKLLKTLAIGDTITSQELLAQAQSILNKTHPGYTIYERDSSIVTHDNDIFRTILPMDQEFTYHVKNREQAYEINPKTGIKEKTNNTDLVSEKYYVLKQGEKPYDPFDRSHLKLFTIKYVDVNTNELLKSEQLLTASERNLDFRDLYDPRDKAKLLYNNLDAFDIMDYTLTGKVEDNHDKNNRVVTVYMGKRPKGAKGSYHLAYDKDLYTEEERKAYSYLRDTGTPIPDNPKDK

[19] = test system: Streptococcus sp. 'group A'; test: growth inhibition of control SK(-) GAS strain, dose response, counter-screen for streptokinase expression inhibitor project, luminescence, kanamycin, BacTiterGlo, confirmation (AID 1900); assay type: functional, organism-based
[20] = test system: Streptococcus; test: Group A Streptococcus viability loss, dose response, counter-screen for streptokinase expression inhibitor project, luminescence, BacTiterGlo (AID 1915); assay type: functional, organism-based;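 also: potency for reduction of bacterial viability or growth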
[21] = target: Beta Lactamase (Pseudomonas aeruginosa, UniProt Q932Y6); test: beta-lactamase reporter inhibitor potency, dose response, artefact control for TLR9-MyD88 binding inhibitor project, BLA reporter cells, FRET fluorescence (AID 588341); assay type: cell-based;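 also: cell based assay in CHO-K1 cells stably expressing beta-lactamase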
[22] = test system: CHO; test: cytotoxicity in TLR9-MyD88 CHO cells, dose response, cytotoxicity control for TLR9-MyD88 binding inhibitor project, cell-based, luminescence (AID 588339); assay type: functional, hamster; settings: Cricetulus griseus;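 also: CHO cells stably coexpressing TLR9 and MyD88 fusions from primary screen; compound exposure lasted 48 hours before viability readout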
[23] = target: Heat shock protein HSP 90-alpha (Homo sapiens, UniProt P07900); assay type: functional, organism-based
[24] = target: Glucose-6-phosphate 1-dehydrogenase (Homo sapiens, UniProt P11413); test: human G6PD enzyme inhibitors, dose response, selectivity assay for P. falciparum G6PD inhibitor project, biochemical, fluorescence (AID 504792); assay type: functional
Chain of Glucose-6-phosphate 1-dehydrogenase (P11413 whole entry): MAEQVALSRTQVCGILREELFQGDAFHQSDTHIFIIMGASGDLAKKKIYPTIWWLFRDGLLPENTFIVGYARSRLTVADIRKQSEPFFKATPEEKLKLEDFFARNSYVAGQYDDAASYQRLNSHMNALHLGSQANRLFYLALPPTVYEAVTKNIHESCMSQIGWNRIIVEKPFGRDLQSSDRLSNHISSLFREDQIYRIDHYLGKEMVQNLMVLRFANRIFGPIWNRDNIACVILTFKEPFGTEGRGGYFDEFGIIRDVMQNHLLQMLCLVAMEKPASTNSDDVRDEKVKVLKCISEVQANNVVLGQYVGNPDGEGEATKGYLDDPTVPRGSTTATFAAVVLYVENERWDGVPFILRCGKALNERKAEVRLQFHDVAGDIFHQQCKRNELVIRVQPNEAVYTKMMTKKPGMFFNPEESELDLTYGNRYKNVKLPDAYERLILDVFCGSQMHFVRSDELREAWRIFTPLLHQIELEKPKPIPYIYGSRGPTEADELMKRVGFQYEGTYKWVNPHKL

Chain of Beta Lactamase (Q932Y6 whole entry, the tested form may be a part): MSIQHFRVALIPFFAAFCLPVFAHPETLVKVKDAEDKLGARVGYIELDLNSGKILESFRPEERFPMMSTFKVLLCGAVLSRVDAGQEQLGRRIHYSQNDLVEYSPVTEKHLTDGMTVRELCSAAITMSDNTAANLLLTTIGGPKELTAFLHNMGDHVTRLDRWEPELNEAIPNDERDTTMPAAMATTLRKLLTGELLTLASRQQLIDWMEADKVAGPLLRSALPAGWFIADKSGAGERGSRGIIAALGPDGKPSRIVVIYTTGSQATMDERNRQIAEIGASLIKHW

CCOC(=O)CCc1c(C)c2c(O)cc(O)cc2oc1=O
GI50 [1]: 3.77 µM (inactive)
GI50 [2]: 14 µM (inactive)
GI50 [3]: > 94.2 µM (inactive)

CCOC(=O)c1cc2ccc3ccccc3c2s1
IC50 [4]: 10.5 µM (active)
IC50 [5]: > 100 µM (inactive)
IC50 [6]: 70.9 µM (active)
IC50 [7]: 49.5 µM (active)

Cc1cccc(NC(=O)/C=C/c2ccc([N+](=O)[O-])s2)c1
EC50 [8]: 15.7 µM (active)
EC50 [9]: 4.67 µM (inconclusive)
AC50 [10]: 9.74 µM (active)
EC50 [11]: 4.95 µM (inconclusive)
AC50 [12]: 13.5 µM (active)
EC50 [13]: 4.68 µM (active)
EC50 [14]: 0.531 µM (active)
AC50 [15]: 7.91 µM (active)
AC50 [16]: 3.29 µM (active)

N/C(=N\O)N/N=C/c1ncccc1O
GI50 [1]: 1.67 µM (inactive)
GI50 [2]: 1.52 µM (inactive)
GI50 [3]: 3.52 µM (inactive)

CCCOC(=O)c1ccc(NC(=O)/C=C/c2cccs2)cc1
IC50 [4]: 12.9 µM (active)
IC50 [5]: 70.2 µM (active)
IC50 [17]: > 100 µM (inactive)
IC50 [6]: 69.7 µM (active)
IC50 [7]: 62.9 µM (active)

Nc1c(S(=O)(=O)O)cc(S(=O)(=O)O)c2ccc(/N=N/c3ccc(/C=C/c4ccc(/N=N/c5ccc6c(S(=O)(=O)O)cc(S(=O)(=O)O)c(N)c6c5O)cc4S(=O)(=O)O)c(S(=O)(=O)O)c3)c(O)c12
GI50 [1]: 73.5 µM (inactive)
GI50 [3]: > 100 µM (inactive)

Cc1cccc(NCc2nc3ccccc3n2Cc2ccccc2)c1
IC50 [4]: 12.7 µM (active)
IC50 [5]: 54.9 µM (active)
EC50 [18]: > 150 µM (not active)
EC50 [19]: 8.81 µM (active)
IC50 [6]: 37.7 µM (active)
IC50 [7]: 44.6 µM (active)
EC50 [20]: > 150 µM (not active)

N/C(S)=N/N=C/c1ncccc1O
GI50 [1]: 0.347 µM (active)
GI50 [2]: 0.366 µM (active)
GI50 [3]: 0.382 µM (active)

O=C(NN1C(=O)CSC1c1ccc(C(F)(F)F)cc1)c1ccncc1 (configuration not stated)
GI50 [1]: > 100 µM (inactive)
GI50 [2]: > 67.6 µM (inactive)
GI50 [3]: > 100 µM (inactive)

CC(=O)Nc1ccc2c(c1)Cc1cc(N3C(=O)C=CC3=O)ccc1-2
IC50 [21]: 7.23 µM (active)
IC50 [22]: 1.86 µM (active)
AC50 [23]: 0.68 µM (active)
IC50 [24]: > 80 µM (inactive)

Cc1ccc(Nc2ncnc3c2oc2ccccc23)cc1
IC50 [4]: 5.1 µM (active)
IC50 [5]: > 100 µM (inactive)
IC50 [6]: > 100 µM (inactive)
IC50 [7]: 28 µM (active)
